Patent publication US8283373B2, “Inhibitors of cytosolic phospholipase A2” (Pfizer Inc., priority 2005, dated 2012)
“Also recorded” adds a separate entry of the source.

Assays:
[1] = test system: primary cerebellar granule neurons; experiment: Oxygen-glucose deprivation (OGD) in cultured cerebellar granule neurons; assay type: cell-based, rat; settings: for percent cell death (lactate dehydrogenase release), Avg.: OGD 2 hours, control 14, OGD 51
Protocol: Primary cerebellar granule neurons were isolated from P5-8 rat pups. Briefly, cerebelli were collected and pooled in ice-cold phosphate buffer saline (PBS) without Ca^2+ and Mg^2+. The tissue was finely chopped and transferred to an enzymatic dissociation media containing 20 IU/ml papain in Earle's balanced salt solution (Worthington Biochemical, Freehold, N.J.) and incubated for 30 minutes at 37° C. After enzymatic dissociation, the papain solution was aspirated and the tissue mechanically triturated with a fire-polished Pasteur pipette in complete media [Neurobasal Medium with B-27 supplement (Gibco, Grand Island, N.Y.), penicillin/streptomycin, aphidicolin, glutamate, potassium chloride] containing 2,000 IU/ml DNase and 10 mg/ml ovomucoid protease inhibitor. Single-cell suspensions in complete media were plated on pre-coated poly-L-ornithine/laminin 24-well plates (Becton-Dickinson, Bedford, Mass.) at a density of
5.0×10^5 cells/well. Cells were maintained for two weeks prior to experimentation.
Cultures were treated with Compound A at various concentrations, 60 minutes before OGD. Media was removed and replaced with deoxygenated buffer in an anaerobic chamber (80% nitrogen, 10% hydrogen, 10% carbon dioxide gas mixture). Fresh Compound A, Example 34 or Example 41 was added to the cultures and maintained in the anaerobic chamber for 2 hours. At the end of the incubation, fresh media was exchanged and fresh Compound A was added. Cultures were maintained for an additional 24 hours in a normoxic incubator. Cell death was determined by measuring lactate dehydrogenase release into the media 24 hours later (Roche Biochemicals). In the table below, values are shown for the control, OGD, various concentrations of Compound A, and MK801, a NMDA receptor antagonist, which is a positive control.

cPLA2α = molecular target: T1, cPLA2α (Homo sapiens, UniProt P47712); experiment: GLU Micelle Assay; assay type: biochemical
T1 sequence (P47712 1-749): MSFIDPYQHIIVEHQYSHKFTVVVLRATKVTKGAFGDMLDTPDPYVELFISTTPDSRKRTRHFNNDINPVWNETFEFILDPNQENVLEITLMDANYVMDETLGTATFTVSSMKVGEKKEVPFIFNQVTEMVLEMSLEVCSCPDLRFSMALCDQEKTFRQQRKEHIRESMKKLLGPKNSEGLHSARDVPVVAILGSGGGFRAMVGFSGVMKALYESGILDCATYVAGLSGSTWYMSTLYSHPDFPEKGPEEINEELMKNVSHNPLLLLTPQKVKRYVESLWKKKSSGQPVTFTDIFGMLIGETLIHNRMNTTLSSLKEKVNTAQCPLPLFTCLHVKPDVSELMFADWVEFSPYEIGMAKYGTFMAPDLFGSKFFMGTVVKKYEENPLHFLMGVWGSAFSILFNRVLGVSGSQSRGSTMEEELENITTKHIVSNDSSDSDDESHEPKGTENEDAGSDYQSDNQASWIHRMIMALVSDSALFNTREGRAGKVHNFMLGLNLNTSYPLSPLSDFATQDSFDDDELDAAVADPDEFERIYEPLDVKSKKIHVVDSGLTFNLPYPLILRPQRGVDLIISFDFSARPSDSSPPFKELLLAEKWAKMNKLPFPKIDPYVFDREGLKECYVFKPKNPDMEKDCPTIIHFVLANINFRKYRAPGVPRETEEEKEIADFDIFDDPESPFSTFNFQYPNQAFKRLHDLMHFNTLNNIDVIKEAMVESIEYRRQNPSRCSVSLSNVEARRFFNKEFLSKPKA
Procedure, shortened: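 Fluorogenic micelle assay with 1 μg/ml cPLA2α and 90 μM GLU substrate plus 120 μM DTPC in 940 μM Triton X-100, 50 mM Hepes pH 7.4, 0.3 mM EDTA, 1 mM CaCl2, 300 mM KCl. Fluorescence (ex 355/em 460) was read every 4 min for 84 min. Percent inhibition came from slopes relative to positive and negative controls.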

CFA-induced hyperalgesia = CFA-induced hyperalgesia model; assay type: in vivo, rat; settings: 6 hours after CFA
Text: The sensitivity of peripheral sensory neurons can be enhanced such that they respond to both noxious and non-noxious stimuli resulting in chronic pain (See Julius, D. et al., Nature. 2001; 413:203; Woolf, C. J., et al., Science. […]; 288:1765). Prostaglandins and leukotrienes at the site of inflammation and tissue damage are partially responsible for this potentiation of the pain response. Prostaglandins promote the phosphorylation of ion channels, increasing the excitability and lowering the pain threshold of sensory neurons. Analogously, leukotriene B4 and related arachidonate metabolites of 12-LO bind to and activate the capsaicin receptor (or VR1) ion channel on neurons that respond to heat and low pH (See Piomelli D., TRENDS in Pharmacological Sciences, January 2001; 22(1):17-29). The effect of the compound of Example 10 was measured in the CFA-induced hyperalgesia model, and lipid mediator production was measured at peripheral and central sites.
The animals were dosed with vehicle, the compound of Example 10, naproxen or celecoxib, and then CFA was immediately injected into the hind footpad. To assess hyperalgesia, pressure was applied to the left hind paw at a slow and constant rate using a digital force gauge. Measurements were taken at 0 and 6 hours. The application of the force was stopped when the animal vocalized, or struggled. Readings were taken prior to dosing and CFA injection, and repeated six hours after the CFA injection. Two independent experiments were run and the data were analyzed separately.
The paws were collected at the end of each experiment (6 hours) and the levels of PGE2, LTB4 and TXB2 were measured in the exudates.

SMILES	protection of cultured neurons from OGD-induced cell death [1]	percent cell death (lactate dehydrogenase release), Avg. ([1]; 0.1 μM) [%]	percent cell death (lactate dehydrogenase release), Avg. ([1]; 0.3 μM) [%]	percent cell death (lactate dehydrogenase release), Avg. ([1]; 1 μM) [%]	percent cell death (lactate dehydrogenase release), Avg. ([1]; 3 μM) [%]	IC50 (cPLA2α) [nM]	pain (paw pressure) compared to vehicle control (CFA-induced hyperalgesia; 25 mg/kg)	LTB4 levels in paw exudates (CFA-induced hyperalgesia)	TXB2 levels in paw exudates (CFA-induced hyperalgesia)	PGE2 levels in paw exudates (CFA-induced hyperalgesia; Example 10 at 25 mg/kg)
Cc1cccc(C)c1CS(=O)(=O)NCCc1c(CCCc2ccc(C(=O)O)cc2)c2cc(Cl)ccc2n1C(c1ccccc1)c1ccccc1 [Compound A, 4-{3-[1-benzhydryl-5-chloro-2-(2-{[(2,6-dimethylbenzyl)sulfonyl]amino}ethyl)-1H-indol-3-yl]propyl}benzoic acid]	effective in protecting cultured neurons from OGD-induced cell death	38	31	27	20	–	–	–	–	–
O=C(O)c1ccc(CCCc2c(CCNS(=O)(=O)Cc3ccccc3C(F)(F)F)n(C(c3ccccc3)c3ccccc3)c3ccc(Cl)cc23)cc1 [Example 10, 4-(3-{5-chloro-1-(diphenylmethyl)-2-[2-({[2-(trifluoromethyl)benzyl]sulfonyl}amino)ethyl]-1H-indol-3-yl}propyl)benzoic acid]	–	–	–	–	–	9	statistically significant decrease; also recorded: effective	significantly inhibited	greater than the inhibition with celecoxib	significantly inhibited
